Measurements reported in patent publication US7759526B2 (priority 2000, dated 2010).
Entries after “also recorded” stand apart in the source; their conditions may differ.

What was measured:
[1] = system: human HL-60 promyelecytic leukemia cells; assay: Apoptosis of HL-60 cells, Hoechst 33258 stain; assay type: cell-based; settings: for % apoptosis / programmed cell death (apoptosis): HL-60; for % apoptosis: 24 h; for programmed cell death (apoptosis): dose dependent 0.1 μg/ml to 8 μg/ml
Description: The method used, namely determination by the fluorescent Hoechst 33258 stain, is described by T. R. Chen (Cell Res. 104, 255-262, 1977). A Table of results is appended in following Table D.

[2] = system: uptake of endocannabinoids into neuronal cells; assay: Uptake of endocannabinoids into neuronal cells; assay type: cell-based; settings: preliminary data
CB2 = CB2 (Homo sapiens, UniProt P34972); settings: cited from earlier work
CB2, sequence (P34972 whole entry, species assumed): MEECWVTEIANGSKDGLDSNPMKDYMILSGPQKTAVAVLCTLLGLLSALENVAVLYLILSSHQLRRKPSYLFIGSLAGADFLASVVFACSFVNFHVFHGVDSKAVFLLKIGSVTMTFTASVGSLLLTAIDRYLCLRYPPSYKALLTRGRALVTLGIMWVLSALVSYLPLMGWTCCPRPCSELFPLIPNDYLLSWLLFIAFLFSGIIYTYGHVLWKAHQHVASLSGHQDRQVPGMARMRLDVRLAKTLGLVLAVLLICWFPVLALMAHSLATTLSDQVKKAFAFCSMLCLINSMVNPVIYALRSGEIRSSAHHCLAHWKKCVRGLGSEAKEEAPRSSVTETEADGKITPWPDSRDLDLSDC

[3] = system: tetradecanoylphorbolacetable (TPA) induced erythema of mouse ear; settings: application of a 100 μg/ml solution; Formukong et al. 1988; cited from earlier work
[4] = system: phenylbenzoquinone writhing; settings: Formukong et al. 1988; cited from earlier work
[5] = system: arachidonic acid-induced swelling of the ear; assay: Arachidonic acid-induced ear inflammation in the mouse; assay type: in vivo
Procedure: Mice (female Sabra) were treated with […] A′ A (in 5 μl EtOH) dispersed on the inner surface of one of the ears. The other ear was treated with 5 μl of EtOH. Ear swelling was assessed by measuring ear thickness with a dial thickness gauge (Mitutoyo, Japan) just before treatment and 30 min after A; A application. The drugs (40 mg/kg for the cannabinoids and 20 mg/kg for indomethacin) were injected i.p. 60 min before the A′ A treatment. *** indicates p<0.001.
The effect of various doses of CBD-7-oic acid (3a) (Example 28), and of CBD-DMH-7-oic acid (3b) (Example 28) and of indomethacin (20 mg/kg) after arachidonic acid-induced swelling of the ear are shown in FIG. 2. The effects were measured over 75 min after the administration of arachidonic acid.
(§1) Female Sabra mice (2 months old, Harlan-Sprague Dawley, Jerusalem) were used for a series of tests and for the assays for inflammation and peripheral pain. Groups of 5 mice were used in each experiment. Compounds 2a, 2b, 3a and 3b were dissolved in vehicle (ethanol:emulphor:saline=1:1:18) and injected intraperitoneally (i.p.) in volumes of 0.1 ml/10 g in mice as previously described (Hanus et al., 1999).
Ear inflammation was measured by assessing ear tissue swelling after topical application of arachidonic acid. […] The opposite ear served as control (5 μl ethanol). Ear thickness was determined (in 0.01 mm units) every 15 min for 90 min starting immediately after arachidonic acid application using a dial thickness gauge (Mitutoyo, Japan).

[6] = system: release of reactive oxygen intermediates by monocytic RAW 264.7 cells; assay: Zymosan-induced release of reactive oxygen intermediates, chemiluminescence; assay type: cell-based
Description: Table of results are attached in following Table C.
(§2) The experimental methods used have been described in Gallily et al. (Eur. J. Pharmacol. 406, R5-R7, 2000), Avron and Gallily (J. Leukocyte Biol. 57, 264-268, 1995) and Gallily et al. (J. Pharmacol. Exp. Ther. 283, 918-924, 1997).

[7] = system: formalin-induced paw licking; assay: Formalin test for peripheral pain; assay type: in vivo, mouse; settings: mice; 20 mg/kg; 5 min recorded 30 min after formalin (3.2%)
Procedure: Thus mice injected with formalin (3.2% dissolved in saline) licked their paws 8±2 times over 5 min, recorded 30 min after the formalin administration.
as §1
Pain mediated by the peripheral nervous system, was tested in the ‘formalin test’ for cutaneous (peripheral) pain (Tjolson et al., 1992; Calignano et al., 1998; Jaggar et al, 1998). The compound tested (or vehicle) was injected i.p. Formalin (3.2% dissolved in saline) was injected s.c. in the plantar surface of the hind paw of a mouse (in 20 μl volumes) 90 min after the drug. Immediately after formalin administration nociception was assessed (every 5 min for 1 hr) by the number of times the animal licks for formalin-injected paw.

[8] = Antianxiety and anticonvulsive effects (preliminary data)
CB1 = molecular target: T1, CB1 (Rattus norvegicus, UniProt P20272); settings: previously described probe; cited from earlier work
T1 construct: synaptosomal membranes prepared from rat brains; from tissue; host or cells: rat brain synaptosomal membranes
T1 sequence (P20272 whole entry): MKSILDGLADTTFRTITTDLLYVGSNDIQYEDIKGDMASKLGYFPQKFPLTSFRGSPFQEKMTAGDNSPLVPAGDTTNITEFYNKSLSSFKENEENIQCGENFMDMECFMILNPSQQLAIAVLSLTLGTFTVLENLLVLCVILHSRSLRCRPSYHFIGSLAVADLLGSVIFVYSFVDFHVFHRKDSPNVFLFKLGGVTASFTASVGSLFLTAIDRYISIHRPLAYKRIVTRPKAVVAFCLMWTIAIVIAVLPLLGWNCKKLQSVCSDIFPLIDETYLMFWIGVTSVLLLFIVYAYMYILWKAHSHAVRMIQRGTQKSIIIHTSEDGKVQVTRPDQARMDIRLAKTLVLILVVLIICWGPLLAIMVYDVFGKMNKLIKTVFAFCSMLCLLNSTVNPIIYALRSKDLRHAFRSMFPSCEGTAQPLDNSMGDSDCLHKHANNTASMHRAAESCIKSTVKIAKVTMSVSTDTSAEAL

[9] = system: TNFα production by Thioglycollate-elicited macrophages (TGMMΦ); assay: TNFα production by thioglycollate-elicited macrophages; assay type: cell-based, murine; settings: TGMΦ; for % inhibition of TNFα titer: 24 hrs
Procedure: (§3) The inhibition is dose dependent (10 μg-0.001 μg/ml). Tables of results are attached in following Tables A and B.
as §2

[10] = system: TNFα production by RAW 264.7 mouse monocytic cell line; assay: TNFα production by RAW 264.7 mouse monocytic cell line; assay type: cell-based; parameters: TNFα Titer S50: unit not given beside the values
Procedure: as §3, §2

serum TNFα = assay: Serum TNFα in mice after ip injection of LPS; assay type: in vivo
Procedure: This anti TNFα effect is also seen in vivo. High levels of TNFα appear in serum of mice after ip injection of 5 mg/kg/mouse lipopolysaccharide (LPS). […] At the lower dose of 0.5 mg/kg 80% suppression of TNFα level was observed. […] Thus 7-hydroxy-CBD (2a) in doses of 10 μg/kg i.p. suppressed serum TNFα in mice (30%).

[11] = cannabinoid 5 mg/kg, compared with indomethacin 20 mg/kg
[12] = cannabinoid 40 mg/kg i.p., compared with indomethacin 20 mg/kg i.p.
[13] = cannabinoid 80 mg/kg, compared with indomethacin 20 mg/kg

For C=C(C)[C@@H]1CCC(C)=C[C@H]1c1c(O)cc(CCCCC)cc1O [CBD, Cannabidiol], the “% apoptosis” value ([1]; 1 μg/ml, no irradiation) was 19%, the “% apoptosis” value ([1]; 1 μg/ml, γ-irradiation 800 rad) was 28% and the “% apoptosis” value ([1]; 4 μg/ml, no irradiation) was 33%. The “% apoptosis” value ([1]; 4 μg/ml, γ-irradiation 800 rad) was 45%, the “% apoptosis” value ([1]; 8 μg/ml, no irradiation) was 48% and the “% apoptosis” value ([1]; 8 μg/ml, γ-irradiation 800 rad) was 85%. For the same compound, the “programmed cell death (apoptosis)” value [1] was “high rate of programmed cell death”, the “apoptosis, synergism with γ ray irradiation” value ([1]; HL-60 irradiated by γ ray (800 rad) and treated with cannabinoid) was “up to 85%” and the “uptake of endocannabinoids into neuronal cells” value (“uptake” for short) [2] was “prevent the uptake of endocannabinoids into neuronal cells”. The “binding to cannabinoid receptor CB2” value (CB2) was “does not bind”, the “inhibition of the inflammation response” value [3] was 92% and the “analgesic potency compared with aspirin” value [4] was “much more potent than aspirin”.
For C=C(C)[C@@H]1CCC(C(=O)O)=C[C@H]1c1c(O)cc(CCCCC)cc1O [Compound 3a, 7-Nor-carboxy CBD], the “antiinflammatory effect on arachidonic acid-induced ear swelling” value (from here on “antiinflammatory effect”) [5, 11] was “less active than 3b”, the “antiinflammatory effect” value [5, 12] was “essentially equivalent to that of indomethacin” and the “antiinflammatory effect” value [5, 13] was “less effective than indomethacin”. For the same compound, the Cherniluminescense peak ([6]; Zymosan + 4 μg/ml) was 4139, the “Inhibition % of ROI release” value ([6]; Zymosan + 4 μg/ml) was 31% and the Cherniluminescense peak ([6]; Zymosan + 10 μg/ml) was 1041. For the same compound, the “Inhibition % of ROI release” value ([6]; Zymosan + 10 μg/ml) was 83%, the “paw licking, late phase of formalin-induced pain behavior” value (“paw licking, late phase” below) [7] was “fully blocked the licking” and the “antianxiety and anticonvulsive effects” value [8] was “have antianxiety and anticonvulsive effects”.
For CCCCCCC(C)(C)c1cc(O)c2c(c1)OC(C)(C)[C@@H]1CC[C@@H](CO)C[C@@H]21 [[^3H]HU-243], the Ki (CB1) is given as 0.045 ± 0.007 nM.
With C=C(C)[C@@H]1CCC(C(=O)O)=C[C@H]1c1c(O)cc(C(C)(C)CCCCCC)cc1O [Compound 3b, 7-Nor-carboxy CBD DMH] the “antiinflammatory effect” value [5, 11] was “fully suppressed the inflammation; also recorded: as potent as indomethacin”, the “antiinflammatory effect” value [5, 12] was “essentially equivalent to that of indomethacin” and the “antiinflammatory effect” value [5, 13] was “less effective than indomethacin”. For the same compound, the “TNFα Titer (S50) After 24 hrs.” value ([9]; LPS + 0.01 μg/ml) was 535, the “% inhibition of TNFα titer” value ([9]; LPS + 0.01 μg/ml) was 36% and the “TNFα Titer (S50) After 24 hrs.” value ([9]; LPS + 1 μg/ml) was 501. The “% inhibition of TNFα titer” value ([9]; LPS + 1 μg/ml) was 40%, the “TNFα Titer (S50) After 24 hrs.” value ([9]; LPS + 5 μg/ml) was 406 and the “% inhibition of TNFα titer” value ([9]; LPS + 5 μg/ml) was 51%. The “TNFα Titer (S50) After 24 hrs.” value ([9]; LPS + 10 μg/ml) was 159, the “% inhibition of TNFα titer” value ([9]; LPS + 10 μg/ml) was 81% and the “% inhibition of TNFα titer” value ([10]; LPS + 0.01 μg/ml) was 11%. For the same compound, the “TNFα Titer S50” value ([10]; LPS + 0.01 μg/ml) was 5818, the “% inhibition of TNFα titer” value ([10]; LPS + 0.1 μg/ml) was 45% and the “TNFα Titer S50” value ([10]; LPS + 0.1 μg/ml) was 357.6. For the same compound, the “% inhibition of TNFα titer” value ([10]; LPS + 1 μg/ml) was 63%, the “TNFα Titer S50” value ([10]; LPS + 1 μg/ml) was 2384 and the “% inhibition of TNFα titer” value ([10]; LPS + 4 μg/ml) was 65%. The “TNFα Titer S50” value ([10]; LPS + 4 μg/ml) was 2300, the “% inhibition of TNFα titer” value ([10]; LPS + 10 μg/ml) was 91% and the “TNFα Titer S50” value ([10]; LPS + 10 μg/ml) was 615. For the same compound, the “suppression of TNFα level in serum” value (serum TNFα; 0.5 mg/kg simultaneously with LPS) was 80%, the “suppression of serum TNFα level” value (serum TNFα; 0.5 and 5 mg/kg simultaneously with LPS 5 mg/kg ip) was “suppressed serum TNFα level” and the Cherniluminescense peak ([6]; Zymosan + 4 μg/ml) was 1524. For the same compound, the “Inhibition % of ROI release” value ([6]; Zymosan + 4 μg/ml) was 83%, the Cherniluminescense peak ([6]; Zymosan + 10 μg/ml) was 432 and the “Inhibition % of ROI release” value ([6]; Zymosan + 10 μg/ml) was 95%. For the same compound, the “paw licking, late phase” value [7] was “fully blocked the licking”, the “% apoptosis” value ([1]; 5 μg/ml, no irradiation) was 15% and the “% apoptosis” value ([1]; 5 μg/ml, γ-irradiation 800 rad) was 25%. For the same compound, the “% apoptosis” value ([1]; 10 μg/ml, no irradiation) was 27%, the “% apoptosis” value ([1]; 10 μg/ml, γ-irradiation 800 rad) was 58% and the “programmed cell death (apoptosis)” value [1] was “high rate of programmed cell death”. For the same compound, the “antianxiety and anticonvulsive effects” value [8] was “have antianxiety and anticonvulsive effects”.
In the case of C=C(C)[C@@H]1CCC(CO)=C[C@H]1c1c(O)cc(C(C)(C)CCCCCC)cc1O [Compound 2b, 7-Hydroxy CBD-DMH], the “antiinflammatory effect” value [5, 12] is reported as “less active than the potent antiinflammatory drug indomethacin”, the “paw licking, late phase” value [7] is reported as “fully blocked the licking” and the “uptake” value [2] is reported as “prevent the uptake of endocannabinoids into neuronal cells”. The “antianxiety and anticonvulsive effects” value [8] was “have antianxiety and anticonvulsive effects”.
With C=C(C)[C@@H]1CCC(C)=C[C@H]1c1c(O)cc(C(C)(C)CCCCCC)cc1O [Compound 1b, CBD-DMH, reference compound] the “uptake” value [2] was “prevent the uptake of endocannabinoids into neuronal cells”.
With C=C(C)[C@@H]1CCC(CO)=C[C@H]1c1c(O)cc(CCCCC)cc1O [Compound 2a, 7-Hydroxy CBD] the “antiinflammatory effect” value [5, 12] was “less active than the potent antiinflammatory drug indomethacin”, the “suppression of serum TNFα” value (serum TNFα; 10 μg/kg i.p.) was 30% and the “paw licking, late phase” value [7] was “fully blocked the licking”. For the same compound, the “uptake” value [2] was “prevent the uptake of endocannabinoids into neuronal cells” and the “antianxiety and anticonvulsive effects” value [8] was “have antianxiety and anticonvulsive effects”.
